Read-outs that look alike come from different tables or passages of the source.
Key:
[1] = target: P450 3A4 (Homo sapiens (Human), UniProt P08684); assay: Cytochrome P450 isoenzyme inhibition assay (P450 3A4, midazolam); format: in vitro ADME; conditions: human liver microsomes, Midazolam as substrate; read-out: CYP3A4 inhibition IC50
Procedure: For the following cytochrome P450 isoenzymes, these substrates and metabolic reactions are monitored: P450 3A4: hydroxylation of Midazolam (MDZ).
The final incubation volume contains TRIS buffer (0.1 M), MgCl2 (5 mM), a certain concentration of human liver microsomes dependent on the P450 isoenzyme measured (P450 3A4: 0.1 mg/ml) and a certain concentration of the individual substrate for each isoenzyme (P450 3A4: Midazolam 5 μM).
The effect of the test compound is determined at five different concentrations in duplicate (e.g. highest concentration 50 μM with subsequent serial 1:4 dilutions) or without test compound (high control). Following a short preincubation period, reactions are started with the cofactor (NADPH, 1 mM) and stopped by cooling the incubation down to 8° C. and subsequently by addition of one volume of ACN. An internal standard solution—usually the stable isotope of the formed metabolite—is added after quenching of incubations. Peak area analyte (=metabolite formed) and internal standard is determined by LC-MS/MS. The resulting peak area ratio analyte to internal standard in these incubations is compared to a control activity containing no test compound. Within each of the assay runs, the IC50 of a positive control inhibitor dependent on the P450 isoenzyme measured (P450 3A4: ketoconazole) is determined. The assay results are plotted against compound concentrations to calculated IC50 values (half maximal inhibitory concentrations) for inhibitory compounds utilizing Software IDBS E-WorkBook.
Table 4: Inhibition of P450 isoenzyme 3A^4.

[2] = test system: human hepatocytes; assay: Metabolic stability in human hepatocytes; conditions: 1 μM test compound, 50% human serum, percentage of liver blood flow
[3] = target: SOS1 and KRAS G12C (Homo sapiens (Human), UniProt Q07889); assay: KRAS::SOS1 AlphaScreen binding assay (KRAS G12C); conditions: average of at least two measurements
Procedure: (§1) Low IC50 values are indicative of high potency of the SOS1 inhibitor compound in this assay setting:
(§2) • GST-tagged SOS1 (564_1049_GST_TEV_ECO) produced in-house • 6xHis-Tev-K-RasG12D/G12C(1-169)Avi produced in-house • GDP (Sigma Cat No G7127) • AlphaLISA Glutathione Acceptor Beads (PerkinElmer, Cat No AL109) • AlphaScreen Streptavidin Donor Beads (PerkinElmer Cat No 6760002) • Assay plates: Proxiplate-384 PLUS, white (PerkinElmer, Cat No 6008289)
(§3) [formula] • KRAS::SOS1 GDP mix: • 7.5 nM (final assay concentration) K-RasG12C, 10 nM (final assay concentration) K-RasG12D, 10 μM (final assay concentration) GDP and 5 nM (final assay concentration) GST-SOS1 are mixed in assay buffer prior to use and kept at rt. Bead mix: • AlphaLISA Glutathione Acceptor Beads and AlphaScreen Streptavidin Donor Beads are mixed in the dark in assay buffer at a concentration of 10 μg/mL (final assay concentration) each prior to use and kept at rt.
(§4) Compounds are diluted to a final start concentration of 100 μM and are tested in duplicate. Assay-ready plates (ARPs) are generated using an Access Labcyte Workstation with a Labcyte Echo 550 or 555 acoustic dispenser. For compound a start concentration of 100 μM, 150 nL of compound solution is transferred per well in 11 concentrations in duplicate with serial 1:5 dilutions.
(§5) The assay is run using a fully automated robotic system in a darkened room below 100 Lux. 10 μL of KRAS::SOS1 GDP mix is added into columns 1-24 to the 150 nL of compound solution (final dilution in the assay 1:100, final DMSO concentration 1%).
(§6) After a 30 minute incubation time, 5 μL of bead mix is added into columns 1-23. Plates are kept at rt in a darkened incubator. After a further 60 minutes incubation, the signal is measured using a PerkinElmer Envision HTS Multilabel Reader using the AlphaScreen specifications from PerkinElmer. Each plate contains the following controls:
(§7) diluted DMSO+KRAS::SOS1 GDP mix+bead mix
(§8) diluted DMSO+KRAS::SOS1 GDP mix
(§9) Result calculation: IC50 values are calculated and analyzed using a 4 parametric logistic model.
(§10) Table 1: Inhibition values for KRAS G12C as well as for KRAS G12D. […] The value indicates an average value of at least two measurements.

[4] = target: SOS1 and KRAS G12D (Homo sapiens (Human), UniProt Q07889); assay: KRAS::SOS1 AlphaScreen binding assay (KRAS G12D); conditions: average of at least two measurements
Procedure: as §1, §2, §3, §4, §5, §6, §7, §8, §9, §10

[5] = test system: ERK phosphorylation in NCI-H358 SOS2 KO cells (KRAS G12C); assay: Erk phosphorylation assay; format: cell-based, human; conditions: EGF stimulated, average of at least two measurements, read-out: pERK IC50
Procedure: Low IC50 values are indicative of high potency of the SOS1 inhibitor compounds in this assay setting.
ERK phosphorylation assays are performed using the following human cell line: • NCI-H358 SOS2 KO (Hofmann, Gmachl, Ramharter et al, Cancer Discov. 2021, 11(1):142-15): human lung cancer with a KRAS G12C mutation;
NCI-H358 SOS2 KO are seeded at 50000 cells per well in 60 μL of DMEM with 2% FBS, in Greiner TC 384 plates. The cells are incubated overnight in an incubator at 37° C. and 5% CO2 in a humidified atmosphere. 60 nL compound solution (10 mM DMSO stock solution) is then added using a Beckman Coulter Labcyte Echo 550 device. After 50 min incubation in the aforementioned incubator, 5 nl EGF are added to each well for a final concentration of approx. 8 ng/mL using a Beckman Coulter Labcyte Echo 550 device and cells are incubated for another 10-15 minutes before lysis. The medium is removed, and the cells are lysed by addition of 20 μL of 1.6-fold lysis buffer from the AlphaLISA SureFire Ultra pERK1/2 (Thr202/Tyr204) Assay Kit with added protease inhibitors. After 20 minutes of incubation at rt with shaking, 6 μL of each lysate sample is transferred to a 384-well Proxiplate and analyzed for pERK (Thr202/Tyr204) with the AlphaLISA SureFire Ultra pERK1/2 (Thr202/Tyr204) Assay Kit. 3 μL Acceptor Mix and 3 μL Donor Mix are added under subdued light and incubated for 2 h at rt in the dark, before the signal is measured on a Perkin Elmer Envision plate reader using 384 AlphaScreen settings for Proxiplates. Data are fitted by iterative calculation with variable hill slope. The sigmoidal curve slope is fitted using a default fitting curve to ascertain IC50 values.
Table 2: Erk Phosphorylation assay. The value indicates an average value of at least two measurements.

[6] = target: CYP3A4 (Homo sapiens (Human), UniProt P08684); assay: Mechanism-based inhibition of CYP3A4 assay (MBI 3A4); format: in vitro ADME; conditions: human liver microsomes, midazolam substrate, hydroxy-midazolam formation after 30 min preincubation relative to 0 min; for inhibition at 30 min: human, probe midazolam 15 μM (hydroxy-midazolam formation), read-out: MBI inhibition % ctrl. [%] with MDZ
Procedure: Mechanism-Based Inhibition of CYP3A4 assay (MBI 3A4): The mechanism-based inhibition towards CYP3A4 is assayed in human liver microsomes with midazolam as substrate. The test compounds and water control (wells w/o test compound) are preincubated in presence of NADPH (1 mM) with human liver microsomes (0.2 mg/mL) at a concentration of 0, 5 and 25 μM for 0, 10 and 30 min. After preincubation, the incubate is diluted 1:10 (to 0.02 mg/mL) and the substrate midazolam (15 μM) is added for the main incubation (10 min). The main incubation is quenched with ACN and the formation of hydroxy-midazolam is quantified via LC/MS-MS. The formation of hydroxy-midazolam from the 30 min preincubation relative to the formation from the 0 min preincubation is used as a readout. Values of less than 100% mean that the substrate midazolam is metabolized to a lower extent upon 30 min preincubation compared to 0 min preincubation. In general, low effects upon 30 min preincubation are desired (corresponding to values close to 100%/not different to the values determined with water control).
Table 5: Mechanism-based inhibition of P450 isoenzyme 3A4 with midazolam as substrate.

[7] = Homo sapiens, NCI-H358, NCI-H358 SOS2 KO cells

Sequence of SOS1 and KRAS G12C (Q07889 564-1049, stated change not applied): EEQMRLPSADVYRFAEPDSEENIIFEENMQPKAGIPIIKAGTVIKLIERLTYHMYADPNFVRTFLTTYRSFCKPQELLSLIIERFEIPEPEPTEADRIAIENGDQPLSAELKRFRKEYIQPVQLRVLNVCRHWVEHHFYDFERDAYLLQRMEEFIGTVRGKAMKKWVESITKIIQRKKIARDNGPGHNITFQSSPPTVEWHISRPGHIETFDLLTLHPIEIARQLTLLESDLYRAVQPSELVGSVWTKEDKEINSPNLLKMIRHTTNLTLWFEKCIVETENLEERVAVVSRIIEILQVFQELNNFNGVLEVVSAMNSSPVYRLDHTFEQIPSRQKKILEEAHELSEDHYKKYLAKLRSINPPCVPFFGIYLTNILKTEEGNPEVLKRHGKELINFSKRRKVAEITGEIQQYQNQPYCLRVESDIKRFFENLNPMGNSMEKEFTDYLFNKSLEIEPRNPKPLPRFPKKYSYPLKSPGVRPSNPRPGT
Sequence of SOS1 and KRAS G12D (Q07889 564-1049, stated change not applied): as above
Sequence of P450 3A4 (P08684 whole entry): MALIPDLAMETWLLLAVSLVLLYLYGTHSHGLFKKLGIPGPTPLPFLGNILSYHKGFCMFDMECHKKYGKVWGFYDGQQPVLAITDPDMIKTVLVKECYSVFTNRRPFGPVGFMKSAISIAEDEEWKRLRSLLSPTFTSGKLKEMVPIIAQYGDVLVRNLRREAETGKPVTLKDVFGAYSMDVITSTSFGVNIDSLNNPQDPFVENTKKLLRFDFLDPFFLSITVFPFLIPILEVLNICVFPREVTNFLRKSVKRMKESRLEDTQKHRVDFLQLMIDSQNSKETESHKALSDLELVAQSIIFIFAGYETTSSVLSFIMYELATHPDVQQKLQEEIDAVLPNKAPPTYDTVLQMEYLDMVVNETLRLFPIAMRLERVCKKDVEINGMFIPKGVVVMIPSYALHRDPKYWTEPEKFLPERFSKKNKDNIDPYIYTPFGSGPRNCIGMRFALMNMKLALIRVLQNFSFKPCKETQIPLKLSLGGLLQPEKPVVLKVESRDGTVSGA
Sequence of CYP3A4 (P08684 whole entry): as above

## C[C@@H](NC(=O)c1cc(N2CCC(N3CCCC(O)CC3)CC2)c2ncnn2c1)c1cccc(C(F)F)c1F (single isomer, unassigned) [Example E17a]
[1]
  IC50: > 50000 nM
[2]
  Hepatic clearance - QH[%] in human hepatocytes: 13%
[3]
  IC50: 39 nM
[4]
  IC50: 28 nM
[5]; NCI-H358 SOS2 KO cells
  IC50: 94 nM

## C[C@@H](NC(=O)c1cc(N2CCC(N3CCCC(O)CC3)CC2)c2ncnn2c1)c1cccc(C(F)(F)F)c1F (single isomer, unassigned) [Example E43b]
[1]
  IC50: > 50000 nM
[6]
  MBI inhibition % ctrl. [%] with MDZ: 94%
[3]
  IC50: 34 nM
[4]
  IC50: 35 nM
[5]; NCI-H358 SOS2 KO cells
  IC50: 101 nM

## C[C@@H](NC(=O)c1cc(N2CCC(N3CC4CC4C3CO)CC2)c2ncnn2c1)c1cccc(C(F)F)c1F (single isomer, unassigned) [Example cis-E11a]
[1]
  IC50: > 50000 nM
[2]
  Hepatic clearance - QH[%] in human hepatocytes: 38%
[3]
  IC50: 22 nM
[4]
  IC50: 15 nM
[5]; [7]
  IC50: 173 nM

## C[C@@H](NC(=O)c1cc(N2CCC(N3CC4CC4C3CO)CC2)c2ncnn2c1)c1cccc(C(F)F)c1F (single isomer, unassigned) [Example cis-E11b]
[1]
  IC50: > 50000 nM
[2]
  Hepatic clearance - QH[%] in human hepatocytes: 27%
[3]
  IC50: 28 nM
[4]
  IC50: 19 nM
[5]; NCI-H358 SOS2 KO cells
  IC50: 145 nM

## C[C@@H](NC(=O)c1cc(N2CCC(NC3COCC3O)CC2)c2ncnn2c1)c1cccc(C(F)(F)F)c1F (single isomer, unassigned) [Example cis-E41a]
[1]
  IC50: > 50000 nM
[2]
  Hepatic clearance - QH[%] in human hepatocytes: 37%
[3]
  IC50: 50 nM
[4]
  IC50: 38 nM
[5]; NCI-H358 SOS2 KO cells
  IC50: 463 nM

## C[C@@H](NC(=O)c1cc(N2CCC3CCNC3C2)c2ncnn2c1)c1cccc(C(F)(F)F)c1F (single isomer, unassigned) [Example cis-E52a]
[1]
  IC50: > 50000 nM
[2]
  Hepatic clearance - QH[%] in human hepatocytes: 7%
[3]
  IC50: 59 nM
[4]
  IC50: 58 nM
[5]; NCI-H358 SOS2 KO cells
  IC50: 115 nM

## C[C@@H](NC(=O)c1cc(N2CCC(NC3CCCC3(C)O)CC2)c2ncnn2c1)c1cccc(C(F)(F)F)c1F (single isomer, unassigned) [Example trans-E53a]
[1]
  IC50: > 50000 nM
[2]
  Hepatic clearance - QH[%] in human hepatocytes: 45%
[3]
  IC50: 24 nM
[4]
  IC50: 24 nM
[5]; NCI-H358 SOS2 KO cells
  IC50: 143 nM

## C[C@@H](NC(=O)c1cc([C@H]2CC[C@H](N3CCC(F)C(O)C3)CC2)c2ncnn2c1)c1cccc(C(F)(F)F)c1F (single isomer, unassigned) [Example trans-E70a]
[1]
  IC50: > 50000 nM
[2]
  Hepatic clearance - QH[%] in human hepatocytes: 25%
[3]
  IC50: 29 nM
[4]
  IC50: 34 nM
[5]; [7]
  IC50: 259 nM

## C[C@@H](NC(=O)c1cc(N2CCC(N(C)CC3(O)CC3)CC2)c2ncnn2c1)c1cccc(C(F)F)c1F [Example E13]
[1]
  IC50: > 50000 nM
[2]
  Hepatic clearance - QH[%] in human hepatocytes: 21%
[3]
  IC50: 52 nM
[4]
  IC50: 54 nM
[5]; [7]
  IC50: 288 nM

## C[C@@H](NC(=O)c1cc(N2CCC(N3CCO[C@H](CO)C3)CC2)c2ncnn2c1)c1cccc(C(F)F)c1F [Example E14]
[1]
  IC50: > 50000 nM
[2]
  Hepatic clearance - QH[%] in human hepatocytes: 31%
[3]
  IC50: 69 nM
[4]
  IC50: 51 nM
[5]; [7]
  IC50: 490 nM

## C[C@@H](NC(=O)c1cc(N2CCC(N3CCO[C@@H](CO)C3)CC2)c2ncnn2c1)c1cccc(C(F)F)c1F [Example E15]
[1]
  IC50: > 50000 nM
[2]
  Hepatic clearance - QH[%] in human hepatocytes: 31%
[3]
  IC50: 68 nM
[4]
  IC50: 46 nM
[5]; [7]
  IC50: 554 nM

## C[C@@H](NC(=O)c1cc(N2CCC(N3CCC4(CC4)C3)CC2)c2ncnn2c1)c1cccc(C(F)(F)F)c1F [Example E33]
[1]
  IC50: > 50000 nM
[2]
  Hepatic clearance - QH[%] in human hepatocytes: 15%
[3]
  IC50: 80 nM
[4]
  IC50: 73 nM
[5]; [7]
  IC50: 326 nM

## C[C@@H](NC(=O)c1cc(N2CCC(N3CCCC(O)CC3)CC2)c2ncnn2c1)c1cccc(C(F)(F)F)c1F (stereo partly shown) [Example E43b]
[2]
  Hepatic clearance - QH[%] in human hepatocytes: 25%

## C[C@@H](NC(=O)c1cc(N2CCC(N3CCCCC3)CC2)c2ncnn2c1)c1cccc(C(F)(F)F)c1F [Example E49]
[1]
  IC50: > 50000 nM
[2]
  Hepatic clearance - QH[%] in human hepatocytes: 23%
[3]
  IC50: 49 nM
[4]
  IC50: 43 nM
[5]; [7]
  IC50: 250 nM

## C[C@@H](NC(=O)c1cc(N2CC3CCC(C2)N3C)c2nncn2c1)c1cccc(C(F)(F)F)c1F [Example E76]
[1]
  IC50: > 50000 nM
[6]
  inhibition at 30 min: 84%
[3]
  IC50: 49 nM
[4]
  IC50: 36 nM
[5]; [7]
  IC50: 230 nM

## CC(C)N1CC=C(c2cc(C(=O)N[C@H](C)c3cccc(C(F)(F)F)c3F)cn3cnnc23)CC1 [Example E83]
[1]
  IC50: > 50000 nM
[6]
  inhibition at 30 min: 86%
[3]
  IC50: 30 nM
[4]
  IC50: 26 nM
[5]; [7]
  IC50: 132 nM

Source: patent US20250313560A1, “Novel bicyclic benzylamido pyridine derivatives as SOS1 inhibitors” (Boehringer Ingelheim International GmbH, priority 2024, published 2025)
